Legend:
Format in all cases: cell-based
[1] = test system: Chrysosporium keratinophilum; experiment: Agar plate disc-diffusion, antifungal inhibition zone; conditions: Sabouraud's dextrose agar, 72 hours, DMSO zone subtracted
Method: (§1) The agar plate disc-diffusion method was applied. […] The discs were then placed onto the surface of agar plates (nutrient agar for bacteria and Sabouraud's dextrose agar for fungi) seeded with the test organism. Each plate contained 15 mL of the agar medium, previously seeded with 0.2 mL of the broth culture of each organism pregrown for 18 hours. The plates were incubated at 37° C. for 48 hours, and 72 hours for fungi. The inhibition zones was measured in millimeter. Discs impregnated with DMSO were used as a control, and its inhibition zone was subtracted from the tested compound actual inhibition zone.
(§2) The results of the antimicrobial testing can be observed in Tables 1 and 2, below, with ciprofloxacin serving as a reference.

Aspergillus flavus = experiment: as above; conditions: Sabouraud's dextrose agar, 72 hours, DMSO zone subtracted
Method: as §1, §2

Staphylococcus aureus = experiment: Agar plate disc-diffusion, antibacterial inhibition zone; conditions: nutrient agar, 37° C., 48 hours, DMSO zone subtracted
Method: as §1, §2

Escherichia coli = experiment: as above; conditions: nutrient agar, 37° C., 48 hours, DMSO zone subtracted
Method: as §1, §2

Bacillus cereus = experiment: as above; conditions: nutrient agar, 37° C., 48 hours, DMSO zone subtracted
Method: as §1, §2

Pseudomonas aeruginosa = experiment: as above; conditions: nutrient agar, 37° C., 48 hours, DMSO zone subtracted
Method: as §1, §2

[2] = A = concentration of comp. = 10,000 μL
[3] = B = concentration of comp. = 30.000 μL
[4] = C = concentration of comp. = 50,000 μL

O=C1NC(=O)C(c2ccccc2)(c2ccccc2)N1/N=C/c1ccccc1Cl [Compound 4, 1-(2-chlorobenzylideneamino)-5,5-diphenylimidazolidine-2,4-dione]
inhibition zone, Chrysosporium keratinophilum, A [1, 2]: 27 millimeter | inhibition zone, Chrysosporium keratinophilum, B [1, 3]: 29 millimeter | inhibition zone, Chrysosporium keratinophilum, C [1, 4]: 50 millimeter | inhibition zone, Aspergillus flavus, A (Aspergillus flavus; [2]): 25 millimeter | inhibition zone, Aspergillus flavus, B (Aspergillus flavus; [3]): 24 millimeter | inhibition zone, Aspergillus flavus, C (Aspergillus flavus; [4]): 36 millimeter | inhibition zone, Staphylococcus aureus, A (Staphylococcus aureus; [2]): 10 millimeter | inhibition zone, Staphylococcus aureus, B (Staphylococcus aureus; [3]): 17 millimeter | inhibition zone, Staphylococcus aureus, C (Staphylococcus aureus; [4]): 20 millimeter | inhibition zone, Escherichia coli, A (Escherichia coli; [2]): 27 millimeter | inhibition zone, Escherichia coli, B (Escherichia coli; [3]): 32 millimeter | inhibition zone, Escherichia coli, C (Escherichia coli; [4]): 51 millimeter | inhibition zone, Bacillus Cereus, A (Bacillus cereus; [2]): 26 millimeter | inhibition zone, Bacillus Cereus, B (Bacillus cereus; [3]): 29 millimeter | inhibition zone, Bacillus Cereus, C (Bacillus cereus; [4]): 41 millimeter | inhibition zone, Pseudomonas aeruginosa, A (Pseudomonas aeruginosa; [2]): 20 millimeter | inhibition zone, Pseudomonas aeruginosa, B (Pseudomonas aeruginosa; [3]): 24 millimeter | inhibition zone, Pseudomonas aeruginosa, C (Pseudomonas aeruginosa; [4]): 34 millimeter
